Drawing on US9932381B2, “Exendin-4 derivatives as selective glucagon receptor agonists” (priority 2014, dated 2018), this text covers EC50 for six compounds.

For assay [1], the target named is T1, human GLP-1 receptor (hGLP-1 R) (Homo sapiens, UniProt P43220).
T1 construct: expressed in transfected cells; host or cells: HEK-293
The assay can be described thus: cAMP response (HTRF) of HEK-293 cells stably expressing human GLP-1 receptor. The format is cell-based. The settings on record: Table 4. The method, then:
(§1) cAMP content of cells was determined using a kit from Cisbio Corp. (cat. no. 62AM4PEC) based on HTRF (Homogenous Time Resolved Fluorescence). For preparation, cells were split into T175 culture flasks and grown overnight to near confluency in medium (DMEM/10% FBS). Medium was then removed and cells washed with PBS lacking calcium and magnesium, followed by proteinase treatment with accutase (Sigma-Aldrich cat. no. A6964). Detached cells were washed and resuspended in assay buffer (1×HBSS; 20 mM HEPES, 0.1% BSA, 2 mM IBMX) and cellular density determined. They were then diluted to 400000 cells/ml and 25 μl-aliquots dispensed into the wells of 96-well plates. For measurement, 25 μl of test compound in assay buffer was added to the wells, followed by incubation for 30 minutes at room temperature. After addition of HTRF reagents diluted in lysis buffer (kit components), the plates were incubated for 1 hr, followed by measurement of the fluorescence ratio at 665/620 nm. In vitro potency of agonists was quantified by determining the concentrations that caused 50% activation of maximal response (EC50).

The target of assay [2] is T2, human glucagon receptor (hGLUC R) (Homo sapiens, UniProt P47871).
T2 construct: expressed in transfected cells; host or cells: HEK-293
In words: cAMP response (HTRF) of HEK-293 cells stably expressing human glucagon receptor. As to conditions: Table 4; read-out: EC50 hGLUC R. The format is cell-based. As to the method:
as §1, with “temperature.” for “temperature. After addition of HTRF reagents diluted in lysis buffer (kit components), the plates were incubated for 1 hr, followed by measurement of the fluorescence ratio at 665/620 nm. In vitro potency of agonists was quantified by determining the concentrations that caused 50% activation of maximal response (EC50).”
(In TR-FRET formats the signal depends on donor and acceptor labels being close together.)

Non-standard residues stand in square brackets, D forms with d. Residues, ends and D or L forms follow the SMILES beside them. Ala(4-thiazolyl) = N[C@@H](Cc1cscn1)C(=O)O; 1Nal = N[C@@H](Cc1cccc2ccccc12)C(=O)O; Phg = N[C@H](C(=O)O)c1ccccc1; Nle = CCCC[C@H](N)C(=O)O

The EC50 is the concentration needed to bring the measured effect to its halfway point.

T1 sequence (P43220 24-463): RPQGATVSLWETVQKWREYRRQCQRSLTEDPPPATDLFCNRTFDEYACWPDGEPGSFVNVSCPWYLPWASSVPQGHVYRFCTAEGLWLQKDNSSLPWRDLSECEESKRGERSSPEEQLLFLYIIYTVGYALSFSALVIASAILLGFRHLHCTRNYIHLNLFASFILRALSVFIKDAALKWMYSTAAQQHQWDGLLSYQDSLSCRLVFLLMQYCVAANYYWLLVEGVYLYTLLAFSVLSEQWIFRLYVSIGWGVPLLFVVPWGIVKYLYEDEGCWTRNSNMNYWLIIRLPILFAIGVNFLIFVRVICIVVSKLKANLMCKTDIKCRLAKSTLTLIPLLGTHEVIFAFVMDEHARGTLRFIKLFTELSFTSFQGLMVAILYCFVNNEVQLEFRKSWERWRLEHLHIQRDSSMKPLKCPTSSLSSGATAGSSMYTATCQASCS
T2 sequence (P47871 26-477): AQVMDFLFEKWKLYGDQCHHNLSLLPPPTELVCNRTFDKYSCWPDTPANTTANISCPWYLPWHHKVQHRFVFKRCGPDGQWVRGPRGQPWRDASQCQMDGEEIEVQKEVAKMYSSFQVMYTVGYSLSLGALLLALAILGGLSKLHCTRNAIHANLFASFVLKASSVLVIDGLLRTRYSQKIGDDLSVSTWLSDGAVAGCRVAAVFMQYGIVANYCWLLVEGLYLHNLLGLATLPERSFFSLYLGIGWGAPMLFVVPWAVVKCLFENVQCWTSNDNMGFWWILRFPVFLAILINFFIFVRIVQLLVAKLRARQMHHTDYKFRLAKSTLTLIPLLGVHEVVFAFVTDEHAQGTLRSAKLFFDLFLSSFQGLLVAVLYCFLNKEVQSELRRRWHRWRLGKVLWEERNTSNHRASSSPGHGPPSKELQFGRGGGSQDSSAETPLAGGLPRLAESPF

In the case of `CC[C@H](C)[C@H](NC(=O)[C@H](Cc1ccccc1)NC(=O)[C@H](CCC(=O)O)NC(=O)[C@H](CCC(N)=O)NC(=O)[C@H](C)NC(=O)[C@H](CCCNC(=N)N)NC(=O)[C@H](CCCNC(=N)N)NC(=O)[C@H](CO)NC(=O)[C@H](CCC(=O)O)NC(=O)[C@H](CC(C)C)NC(=O)[C@H](CCC(N)=O)NC(=O)[C@H](CCCCN)NC(=O)[C@H](CO)NC(=O)[C@@H](NC(=O)[C@H](CC(=O)O)NC(=O)[C@H](CO)NC(=O)[C@@H](NC(=O)[C@H](Cc1ccccc1)NC(=O)[C@@H](NC(=O)CNC(=O)[C@H](CCC(N)=O)NC(=O)[C@H](CO)NC(=O)[C@@H](N)Cc1cscn1)[C@@H](C)O)[C@@H](C)O)c1ccccc1)C(=O)N[C@@H](CCC(=O)O)C(=O)N[C@@H](Cc1c[nH]c2ccccc12)C(=O)N[C@@H](CC(C)C)C(=O)N[C@@H](CC(C)C)C(=O)N[C@@H](C)C(=O)N[C@H](C(=O)NCC(=O)N1CCC[C@H]1C(=O)N[C@@H](CCC(=O)O)C(=O)N[C@@H](CO)C(=O)NCC(=O)N[C@@H](C)C(=O)N1CCC[C@H]1C(=O)N1CCC[C@H]1C(=O)N1CCC[C@H]1C(=O)N[C@@H](CO)C(=O)O)[C@@H](C)O` [SEQ ID NO 10, Tza-S-Q-G-T-F-T-S-D-Phg-SKQLESRRAQEFIEWLLATGPESGAPPPS-OH] (H-[Ala(4-thiazolyl)]SQGTFTSD[Phg]SKQLESRRAQEFIEWLLATGPESGAPPPS-OH; N-terminus assumed), the values for the EC50 in assay [1] and in assay [2] were 45 nM and 0.006 nM, respectively.
On to `CC[C@H](C)[C@H](NC(=O)[C@H](Cc1ccccc1)NC(=O)[C@H](CCC(=O)O)NC(=O)[C@H](CCC(N)=O)NC(=O)[C@H](C)NC(=O)[C@H](CCCNC(=N)N)NC(=O)[C@H](CCCNC(=N)N)NC(=O)[C@H](CO)NC(=O)[C@H](CCC(=O)O)NC(=O)[C@H](CC(C)C)NC(=O)[C@H](CCC(N)=O)NC(=O)[C@H](CCCCN)NC(=O)[C@H](CO)NC(=O)[C@H](CC(C)C)NC(=O)[C@H](CC(=O)O)NC(=O)[C@H](CO)NC(=O)[C@@H](NC(=O)[C@H](Cc1ccccc1)NC(=O)[C@@H](NC(=O)CNC(=O)[C@H](CCC(N)=O)NC(=O)[C@H](CO)NC(=O)[C@@H](N)Cc1cscn1)[C@@H](C)O)[C@@H](C)O)C(=O)N[C@@H](CCC(=O)O)C(=O)N[C@@H](Cc1c[nH]c2ccccc12)C(=O)N[C@@H](CC(C)C)C(=O)N[C@@H](CC(C)C)C(=O)N[C@@H](C)C(=O)N[C@H](C(=O)NCC(=O)N1CCC[C@H]1C(=O)N[C@@H](CCC(=O)O)C(=O)N[C@@H](CO)C(=O)NCC(=O)N[C@@H](C)C(=O)N1CCC[C@H]1C(=O)N1CCC[C@H]1C(=O)N1CCC[C@H]1C(=O)N[C@@H](CO)C(=O)O)[C@@H](C)O` [SEQ ID NO 12, Tza-SQGTFTSDLSKQLESRRAQEFIEWLLATGPESGAPPPS-OH] (H-[Ala(4-thiazolyl)]SQGTFTSDLSKQLESRRAQEFIEWLLATGPESGAPPPS-OH), for which the 50% effective concentration (EC50) in assay [1] came to 20 nM; in assay [2] it was 0.001 nM.
`CC[C@H](C)[C@H](NC(=O)[C@H](Cc1ccccc1)NC(=O)[C@H](CCC(=O)O)NC(=O)[C@H](CCC(N)=O)NC(=O)[C@H](C)NC(=O)[C@H](CCCNC(=N)N)NC(=O)[C@H](CCCNC(=N)N)NC(=O)[C@H](CO)NC(=O)[C@H](CCC(=O)O)NC(=O)[C@H](CC(C)C)NC(=O)[C@H](CCC(N)=O)NC(=O)[C@H](CCCCN)NC(=O)[C@H](CO)NC(=O)[C@H](Cc1cccc2ccccc12)NC(=O)[C@H](CC(=O)O)NC(=O)[C@H](CO)NC(=O)[C@@H](NC(=O)[C@H](Cc1ccccc1)NC(=O)[C@@H](NC(=O)CNC(=O)[C@H](CCC(N)=O)NC(=O)[C@H](CO)NC(=O)[C@@H](N)Cc1cscn1)[C@@H](C)O)[C@@H](C)O)C(=O)N[C@@H](CCC(=O)O)C(=O)N[C@@H](Cc1c[nH]c2ccccc12)C(=O)N[C@@H](CC(C)C)C(=O)N[C@@H](CC(C)C)C(=O)N[C@@H](C)C(=O)N[C@H](C(=O)NCC(=O)N1CCC[C@H]1C(=O)N[C@@H](CCC(=O)O)C(=O)N[C@@H](CO)C(=O)NCC(=O)N[C@@H](C)C(=O)N1CCC[C@H]1C(=O)N1CCC[C@H]1C(=O)N1CCC[C@H]1C(=O)N[C@@H](CO)C(=O)O)[C@@H](C)O` [SEQ ID NO 11, Tza-S-Q-G-T-F-T-S-D-1Nal-SKQLESRRAQEFIEWLLATGPESGAPPPS-OH] (H-[Ala(4-thiazolyl)]SQGTFTSD[1Nal]SKQLESRRAQEFIEWLLATGPESGAPPPS-OH; N-terminus assumed) showed an EC50 in assay [1] of 11.7 nM.
The compound `CC[C@H](C)[C@H](NC(=O)[C@H](Cc1ccccc1)NC(=O)[C@H](CCC(=O)O)NC(=O)[C@H](CCC(N)=O)NC(=O)[C@H](C)NC(=O)[C@H](CCCNC(=N)N)NC(=O)[C@H](CCCNC(=N)N)NC(=O)[C@H](CO)NC(=O)[C@H](CCC(=O)O)NC(=O)[C@H](CC(C)C)NC(=O)[C@H](CCC(N)=O)NC(=O)[C@H](CCCCN)NC(=O)[C@H](CO)NC(=O)[C@H](CC(C)C)NC(=O)[C@H](CC(=O)O)NC(=O)[C@H](CO)NC(=O)[C@@H](NC(=O)[C@H](Cc1ccccc1)NC(=O)[C@@H](NC(=O)CNC(=O)[C@H](CCC(N)=O)NC(=O)[C@H](CO)NC(=O)[C@@H](N)Cc1cscn1)[C@@H](C)O)[C@@H](C)O)C(=O)N[C@@H](CCC(=O)O)C(=O)N[C@@H](Cc1c[nH]c2ccccc12)C(=O)N[C@@H](CC(C)C)C(=O)N[C@@H](CC(C)C)C(=O)N[C@@H](C)C(=O)NCC(=O)NCC(=O)N1CCC[C@H]1C(=O)N[C@@H](CCC(=O)O)C(=O)N[C@@H](CO)C(=O)NCC(=O)N[C@@H](C)C(=O)N1CCC[C@H]1C(=O)N1CCC[C@H]1C(=O)N1CCC[C@H]1C(=O)N[C@@H](CO)C(=O)O` [SEQ ID NO 4, Tza-SQGTFTSDLSKQLESRRAQEFIEWLLAGGPESGAPPPS-OH] (H-[Ala(4-thiazolyl)]SQGTFTSDLSKQLESRRAQEFIEWLLAGGPESGAPPPS-OH; N-terminus assumed) gave an EC50 in assay [1] of 3.3 nM.
`CC[C@H](C)[C@H](NC(=O)[C@H](Cc1ccccc1)NC(=O)[C@H](CCC(=O)O)NC(=O)[C@H](CCC(N)=O)NC(=O)[C@H](C)NC(=O)[C@H](CCCNC(=N)N)NC(=O)[C@H](CCCNC(=N)N)NC(=O)[C@H](CO)NC(=O)[C@H](CCC(=O)O)NC(=O)[C@H](CC(C)C)NC(=O)[C@H](CCC(N)=O)NC(=O)[C@H](CCCCN)NC(=O)[C@H](CO)NC(=O)[C@@H](NC(=O)[C@H](CC(=O)O)NC(=O)[C@H](CO)NC(=O)[C@@H](NC(=O)[C@H](Cc1ccccc1)NC(=O)[C@@H](NC(=O)CNC(=O)[C@H](CCC(N)=O)NC(=O)[C@H](CO)NC(=O)[C@@H](N)Cc1cscn1)[C@@H](C)O)[C@@H](C)O)[C@@H](C)CC)C(=O)N[C@@H](CCC(=O)O)C(=O)N[C@@H](Cc1c[nH]c2ccccc12)C(=O)N[C@@H](CC(C)C)C(=O)N[C@@H](CC(C)C)C(=O)N[C@@H](C)C(=O)N[C@H](C(=O)NCC(=O)N1CCC[C@H]1C(=O)N[C@@H](CCC(=O)O)C(=O)N[C@@H](CO)C(=O)NCC(=O)N[C@@H](C)C(=O)N1CCC[C@H]1C(=O)N1CCC[C@H]1C(=O)N1CCC[C@H]1C(=O)N[C@@H](CO)C(=O)O)[C@@H](C)O` [SEQ ID NO 8, Tza-SQGTFTSDISKQLESRRAQEFIEWLLATGPESGAPPPS-OH]: the results for the EC50 in assay [1] and in assay [2] were 5.8 nM and 0.0022 nM, respectively.
Regarding `CCCC[C@H](NC(=O)[C@H](CCC(N)=O)NC(=O)[C@H](CCCCN)NC(=O)[C@H](CO)NC(=O)[C@H](CC(C)C)NC(=O)[C@H](CC(=O)O)NC(=O)[C@H](CO)NC(=O)[C@@H](NC(=O)[C@H](Cc1ccccc1)NC(=O)[C@@H](NC(=O)CNC(=O)[C@H](CCC(N)=O)NC(=O)[C@H](CO)NC(=O)[C@@H](N)Cc1cscn1)[C@@H](C)O)[C@@H](C)O)C(=O)N[C@@H](CCC(=O)O)C(=O)N[C@@H](CO)C(=O)N[C@@H](CCCNC(=N)N)C(=O)N[C@@H](CCCNC(=N)N)C(=O)N[C@@H](C)C(=O)N[C@@H](CCC(N)=O)C(=O)N[C@@H](CCC(=O)O)C(=O)N[C@@H](Cc1ccccc1)C(=O)N[C@H](C(=O)N[C@@H](CCC(=O)O)C(=O)N[C@@H](Cc1c[nH]c2ccccc12)C(=O)N[C@@H](CC(C)C)C(=O)N[C@@H](CC(C)C)C(=O)N[C@@H](C)C(=O)N[C@H](C(=O)NCC(=O)N1CCC[C@H]1C(=O)N[C@@H](CCC(=O)O)C(=O)N[C@@H](CO)C(=O)NCC(=O)N[C@@H](C)C(=O)N1CCC[C@H]1C(=O)N1CCC[C@H]1C(=O)N1CCC[C@H]1C(=O)N[C@@H](CO)C(=O)O)[C@@H](C)O)[C@@H](C)CC` [SEQ ID NO 16, Tza-S-Q-G-T-F-T-S-D-L-S-K-Q-Nle-ESRRAQEFIEWLLATGPESGAPPPS-OH] (H-[Ala(4-thiazolyl)]SQGTFTSDLSKQ[Nle]ESRRAQEFIEWLLATGPESGAPPPS-OH; N-terminus assumed), in assay [1], the response was half-maximal at 19.7 nM (EC50).
